Assay results from ChEMBL document CHEMBL5291721, “A preclinical secondary pharmacology resource illuminates target-adverse drug reaction associations of marketed drugs” (Nat Commun, 2023).

Key:
[1] = target: Gamma-aminobutyric acid receptor subunit alpha-1/alpha-2/beta-2/gamma-2 (Homo sapiens, UniProt P14867+P18507+P47869+P47870); type: protein-complex assay
[2] = target: Gamma-aminobutyric acid receptor subunit alpha-1 (Rattus norvegicus, UniProt P62813)
[3] = target: Vascular endothelial growth factor receptor 2 (Homo sapiens, UniProt P35968); type: functional
Progesterone receptor [4] = target: T1, Progesterone receptor (Homo sapiens, UniProt P06401); type: functional
T1 sequence (P06401 whole entry): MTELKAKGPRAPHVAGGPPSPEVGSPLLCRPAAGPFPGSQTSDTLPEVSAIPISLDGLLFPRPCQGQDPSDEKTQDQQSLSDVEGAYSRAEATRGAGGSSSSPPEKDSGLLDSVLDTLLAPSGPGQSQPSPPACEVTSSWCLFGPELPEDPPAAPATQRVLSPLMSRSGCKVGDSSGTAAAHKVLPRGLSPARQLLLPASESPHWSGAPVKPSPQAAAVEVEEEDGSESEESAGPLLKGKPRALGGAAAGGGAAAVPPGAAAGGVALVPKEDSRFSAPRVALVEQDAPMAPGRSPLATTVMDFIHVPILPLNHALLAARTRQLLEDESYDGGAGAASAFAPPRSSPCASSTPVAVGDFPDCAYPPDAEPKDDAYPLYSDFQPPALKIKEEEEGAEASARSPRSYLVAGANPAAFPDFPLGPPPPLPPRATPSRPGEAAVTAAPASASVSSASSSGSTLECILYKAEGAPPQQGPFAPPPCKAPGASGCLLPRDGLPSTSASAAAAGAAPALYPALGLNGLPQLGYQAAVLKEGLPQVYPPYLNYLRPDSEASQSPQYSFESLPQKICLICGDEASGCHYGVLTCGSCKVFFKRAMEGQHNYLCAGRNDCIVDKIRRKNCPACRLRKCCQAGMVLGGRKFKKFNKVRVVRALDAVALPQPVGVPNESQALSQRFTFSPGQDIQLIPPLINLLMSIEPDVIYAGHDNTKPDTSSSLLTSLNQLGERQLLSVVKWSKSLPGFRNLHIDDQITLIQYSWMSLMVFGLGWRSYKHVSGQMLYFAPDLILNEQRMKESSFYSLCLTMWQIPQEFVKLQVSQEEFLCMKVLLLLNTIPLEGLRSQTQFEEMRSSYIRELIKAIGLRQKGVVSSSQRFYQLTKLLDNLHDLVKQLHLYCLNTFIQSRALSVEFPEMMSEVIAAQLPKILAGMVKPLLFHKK

[5] = target: 5-hydroxytryptamine receptor 2B (Homo sapiens, UniProt P41595); type: functional, cell-based
[6] = target: T2, Equilibrative nucleoside transporter 1 (Homo sapiens, UniProt Q99808)
T2 sequence (Q99808 whole entry): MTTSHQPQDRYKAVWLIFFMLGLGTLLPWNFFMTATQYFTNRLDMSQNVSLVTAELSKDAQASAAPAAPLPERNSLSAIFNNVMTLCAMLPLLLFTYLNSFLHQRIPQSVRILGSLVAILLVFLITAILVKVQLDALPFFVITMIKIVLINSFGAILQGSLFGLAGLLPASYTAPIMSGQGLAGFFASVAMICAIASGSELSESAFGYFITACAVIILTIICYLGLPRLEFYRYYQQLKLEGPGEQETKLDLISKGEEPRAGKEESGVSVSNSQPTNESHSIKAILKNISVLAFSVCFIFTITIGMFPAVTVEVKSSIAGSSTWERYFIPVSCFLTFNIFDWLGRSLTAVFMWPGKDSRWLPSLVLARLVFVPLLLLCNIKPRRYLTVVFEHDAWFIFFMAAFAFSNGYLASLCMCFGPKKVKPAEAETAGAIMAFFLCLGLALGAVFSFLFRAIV

[7] = target: Sodium-dependent dopamine transporter (Homo sapiens, UniProt Q01959)
[8] = target: T3, Cholecystokinin receptor type A (Homo sapiens, UniProt P32238)
T3 sequence (P32238 whole entry): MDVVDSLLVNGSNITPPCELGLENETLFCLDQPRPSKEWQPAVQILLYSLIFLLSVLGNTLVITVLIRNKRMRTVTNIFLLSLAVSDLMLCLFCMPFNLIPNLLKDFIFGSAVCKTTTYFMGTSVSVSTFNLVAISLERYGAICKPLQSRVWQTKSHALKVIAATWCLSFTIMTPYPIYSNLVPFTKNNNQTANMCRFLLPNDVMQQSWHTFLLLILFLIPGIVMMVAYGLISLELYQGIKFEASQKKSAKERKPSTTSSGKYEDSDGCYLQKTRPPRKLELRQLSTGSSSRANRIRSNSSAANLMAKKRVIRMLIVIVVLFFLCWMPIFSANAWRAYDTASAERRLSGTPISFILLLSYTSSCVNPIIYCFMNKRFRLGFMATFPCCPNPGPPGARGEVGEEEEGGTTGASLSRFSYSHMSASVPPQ

Progesterone receptor [9] = target: T1, Progesterone receptor
[10] = target: T4, Amine oxidase [flavin-containing] A (Homo sapiens, UniProt P21397); type: functional
T4 sequence (P21397 whole entry): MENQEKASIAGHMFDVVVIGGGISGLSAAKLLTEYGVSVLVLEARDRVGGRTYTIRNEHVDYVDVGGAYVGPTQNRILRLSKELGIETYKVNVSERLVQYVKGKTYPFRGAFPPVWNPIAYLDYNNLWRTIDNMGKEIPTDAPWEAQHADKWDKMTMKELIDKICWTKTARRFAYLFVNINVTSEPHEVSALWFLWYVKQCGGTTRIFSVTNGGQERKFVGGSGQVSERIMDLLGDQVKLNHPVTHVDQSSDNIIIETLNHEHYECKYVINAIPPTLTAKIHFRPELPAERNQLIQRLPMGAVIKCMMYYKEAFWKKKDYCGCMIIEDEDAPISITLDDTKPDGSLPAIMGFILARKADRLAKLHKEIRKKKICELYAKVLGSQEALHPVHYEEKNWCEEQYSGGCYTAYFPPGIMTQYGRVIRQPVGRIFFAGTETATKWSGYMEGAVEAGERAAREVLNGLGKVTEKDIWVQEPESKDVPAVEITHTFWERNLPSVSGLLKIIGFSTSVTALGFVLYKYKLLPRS

[11] = target: Neuronal acetylcholine receptor subunit alpha-4 (Homo sapiens, UniProt P43681)
Also: assay procedure not described here.

Sequence of Vascular endothelial growth factor receptor 2 (P35968 whole entry): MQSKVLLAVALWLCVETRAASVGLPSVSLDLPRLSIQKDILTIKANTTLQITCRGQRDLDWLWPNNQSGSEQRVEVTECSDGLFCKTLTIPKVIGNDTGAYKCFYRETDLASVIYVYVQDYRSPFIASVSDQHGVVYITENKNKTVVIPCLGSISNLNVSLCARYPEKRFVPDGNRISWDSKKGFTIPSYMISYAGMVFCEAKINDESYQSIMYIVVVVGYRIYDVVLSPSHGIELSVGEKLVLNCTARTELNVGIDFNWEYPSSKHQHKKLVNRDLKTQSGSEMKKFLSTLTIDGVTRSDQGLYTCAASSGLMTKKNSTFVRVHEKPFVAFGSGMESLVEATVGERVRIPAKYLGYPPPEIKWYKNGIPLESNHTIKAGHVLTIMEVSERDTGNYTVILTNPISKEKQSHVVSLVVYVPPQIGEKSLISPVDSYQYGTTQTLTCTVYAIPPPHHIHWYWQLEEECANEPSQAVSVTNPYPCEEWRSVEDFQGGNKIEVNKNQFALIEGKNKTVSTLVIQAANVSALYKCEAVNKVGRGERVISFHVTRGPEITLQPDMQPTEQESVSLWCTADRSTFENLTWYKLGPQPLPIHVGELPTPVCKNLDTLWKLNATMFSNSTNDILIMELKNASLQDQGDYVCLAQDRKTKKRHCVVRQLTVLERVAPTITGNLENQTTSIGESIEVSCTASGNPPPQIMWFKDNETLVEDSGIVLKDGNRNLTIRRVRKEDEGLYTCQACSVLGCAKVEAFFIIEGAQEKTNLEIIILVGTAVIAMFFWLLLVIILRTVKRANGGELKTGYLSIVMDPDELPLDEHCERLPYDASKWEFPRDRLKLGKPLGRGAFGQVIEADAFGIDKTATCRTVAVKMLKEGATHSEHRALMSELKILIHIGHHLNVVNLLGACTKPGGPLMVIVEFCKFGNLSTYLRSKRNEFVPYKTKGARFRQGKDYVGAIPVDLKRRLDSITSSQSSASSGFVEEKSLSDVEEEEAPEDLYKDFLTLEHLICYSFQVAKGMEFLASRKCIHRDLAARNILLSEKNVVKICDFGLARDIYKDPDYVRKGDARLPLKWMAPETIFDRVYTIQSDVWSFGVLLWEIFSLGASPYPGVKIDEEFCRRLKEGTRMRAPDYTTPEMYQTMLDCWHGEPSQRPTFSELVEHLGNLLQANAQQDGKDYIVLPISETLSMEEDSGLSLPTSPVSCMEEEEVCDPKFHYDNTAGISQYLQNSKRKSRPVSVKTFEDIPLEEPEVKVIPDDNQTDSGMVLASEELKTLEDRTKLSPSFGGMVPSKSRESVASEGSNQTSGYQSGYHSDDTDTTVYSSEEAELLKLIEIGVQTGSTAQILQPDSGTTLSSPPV
Sequence of Gamma-aminobutyric acid receptor subunit alpha-1/alpha-2/beta-2/gamma-2 (P14867 whole entry): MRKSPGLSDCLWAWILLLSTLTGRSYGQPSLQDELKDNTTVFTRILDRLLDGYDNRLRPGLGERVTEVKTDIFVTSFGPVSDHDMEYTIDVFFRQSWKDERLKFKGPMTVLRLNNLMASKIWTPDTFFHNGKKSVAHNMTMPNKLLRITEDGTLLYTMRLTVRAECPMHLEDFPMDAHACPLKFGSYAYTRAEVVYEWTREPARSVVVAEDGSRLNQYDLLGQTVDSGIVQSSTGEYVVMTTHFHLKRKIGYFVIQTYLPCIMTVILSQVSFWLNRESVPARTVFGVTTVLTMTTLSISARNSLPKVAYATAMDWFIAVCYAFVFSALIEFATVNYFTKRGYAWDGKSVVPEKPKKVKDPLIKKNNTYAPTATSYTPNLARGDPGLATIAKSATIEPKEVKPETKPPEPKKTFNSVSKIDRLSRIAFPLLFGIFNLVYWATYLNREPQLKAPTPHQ
Sequence of Gamma-aminobutyric acid receptor subunit alpha-1/alpha-2/beta-2/gamma-2 (P47870 whole entry): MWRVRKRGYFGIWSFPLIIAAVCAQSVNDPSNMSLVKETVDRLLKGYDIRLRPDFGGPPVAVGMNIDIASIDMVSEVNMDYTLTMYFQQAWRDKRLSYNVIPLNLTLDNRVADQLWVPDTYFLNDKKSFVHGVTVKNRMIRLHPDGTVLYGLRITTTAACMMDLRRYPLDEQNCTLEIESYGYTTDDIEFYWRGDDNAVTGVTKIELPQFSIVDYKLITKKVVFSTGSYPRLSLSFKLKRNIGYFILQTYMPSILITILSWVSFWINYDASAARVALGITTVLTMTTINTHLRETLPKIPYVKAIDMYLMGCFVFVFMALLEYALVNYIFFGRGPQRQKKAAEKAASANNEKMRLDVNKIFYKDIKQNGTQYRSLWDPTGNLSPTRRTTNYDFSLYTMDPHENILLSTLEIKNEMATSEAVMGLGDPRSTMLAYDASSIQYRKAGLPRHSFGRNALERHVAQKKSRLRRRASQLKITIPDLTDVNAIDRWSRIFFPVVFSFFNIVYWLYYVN
Sequence of Gamma-aminobutyric acid receptor subunit alpha-1/alpha-2/beta-2/gamma-2 (P18507 whole entry): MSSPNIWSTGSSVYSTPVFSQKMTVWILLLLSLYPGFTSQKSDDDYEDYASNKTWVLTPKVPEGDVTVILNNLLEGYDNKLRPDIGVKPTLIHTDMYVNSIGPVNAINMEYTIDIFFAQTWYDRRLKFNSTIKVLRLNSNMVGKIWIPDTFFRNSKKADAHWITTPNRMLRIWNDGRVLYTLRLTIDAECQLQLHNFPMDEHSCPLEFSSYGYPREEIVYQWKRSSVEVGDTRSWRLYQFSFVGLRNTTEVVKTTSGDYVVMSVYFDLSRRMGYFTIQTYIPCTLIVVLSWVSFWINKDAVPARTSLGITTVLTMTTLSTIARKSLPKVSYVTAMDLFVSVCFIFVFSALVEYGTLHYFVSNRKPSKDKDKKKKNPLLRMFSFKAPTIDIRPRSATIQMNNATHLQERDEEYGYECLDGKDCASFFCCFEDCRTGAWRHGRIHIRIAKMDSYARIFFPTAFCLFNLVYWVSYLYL
Sequence of Gamma-aminobutyric acid receptor subunit alpha-1/alpha-2/beta-2/gamma-2 (P47869 whole entry): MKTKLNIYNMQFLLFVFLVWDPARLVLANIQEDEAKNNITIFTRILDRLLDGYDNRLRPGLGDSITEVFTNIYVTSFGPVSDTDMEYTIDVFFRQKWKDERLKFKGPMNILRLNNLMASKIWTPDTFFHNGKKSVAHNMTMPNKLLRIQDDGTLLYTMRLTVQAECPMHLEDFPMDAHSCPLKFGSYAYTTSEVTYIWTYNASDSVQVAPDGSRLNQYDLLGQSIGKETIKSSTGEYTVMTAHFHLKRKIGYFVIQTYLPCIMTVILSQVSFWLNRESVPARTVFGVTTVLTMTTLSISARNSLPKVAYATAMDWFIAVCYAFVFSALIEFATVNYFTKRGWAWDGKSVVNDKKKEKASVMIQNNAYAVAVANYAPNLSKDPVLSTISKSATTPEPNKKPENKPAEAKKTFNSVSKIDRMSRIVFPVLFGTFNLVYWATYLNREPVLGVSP
Sequence of 5-hydroxytryptamine receptor 2B (P41595 whole entry): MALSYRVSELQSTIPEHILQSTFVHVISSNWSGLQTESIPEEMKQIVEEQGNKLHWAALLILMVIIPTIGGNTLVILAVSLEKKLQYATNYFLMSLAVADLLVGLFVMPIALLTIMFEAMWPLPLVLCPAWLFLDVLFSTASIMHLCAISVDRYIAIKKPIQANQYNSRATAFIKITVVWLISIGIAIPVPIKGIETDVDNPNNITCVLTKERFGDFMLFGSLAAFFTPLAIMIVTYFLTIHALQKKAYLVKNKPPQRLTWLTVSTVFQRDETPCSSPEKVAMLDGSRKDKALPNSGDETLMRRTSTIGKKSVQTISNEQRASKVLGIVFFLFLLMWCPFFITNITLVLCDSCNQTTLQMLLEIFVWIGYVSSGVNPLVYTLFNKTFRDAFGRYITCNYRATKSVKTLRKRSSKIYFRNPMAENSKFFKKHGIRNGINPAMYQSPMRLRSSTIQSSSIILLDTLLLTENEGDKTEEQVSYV
Sequence of Sodium-dependent dopamine transporter (Q01959 whole entry): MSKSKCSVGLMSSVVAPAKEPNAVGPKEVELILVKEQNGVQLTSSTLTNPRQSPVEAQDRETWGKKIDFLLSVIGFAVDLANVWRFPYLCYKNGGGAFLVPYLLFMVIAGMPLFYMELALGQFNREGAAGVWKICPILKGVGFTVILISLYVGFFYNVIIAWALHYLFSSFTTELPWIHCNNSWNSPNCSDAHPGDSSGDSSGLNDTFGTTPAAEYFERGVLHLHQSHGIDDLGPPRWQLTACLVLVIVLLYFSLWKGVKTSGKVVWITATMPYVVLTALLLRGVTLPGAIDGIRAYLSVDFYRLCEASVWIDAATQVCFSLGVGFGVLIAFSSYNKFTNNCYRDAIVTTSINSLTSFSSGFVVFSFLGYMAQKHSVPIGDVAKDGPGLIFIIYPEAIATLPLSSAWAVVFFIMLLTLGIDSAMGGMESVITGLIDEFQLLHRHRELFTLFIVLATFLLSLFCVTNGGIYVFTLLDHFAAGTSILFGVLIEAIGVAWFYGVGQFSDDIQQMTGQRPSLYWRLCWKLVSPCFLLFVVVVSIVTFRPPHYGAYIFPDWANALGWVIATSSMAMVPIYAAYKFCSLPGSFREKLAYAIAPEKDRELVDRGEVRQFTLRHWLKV
Sequence of Neuronal acetylcholine receptor subunit alpha-4 (P43681 whole entry): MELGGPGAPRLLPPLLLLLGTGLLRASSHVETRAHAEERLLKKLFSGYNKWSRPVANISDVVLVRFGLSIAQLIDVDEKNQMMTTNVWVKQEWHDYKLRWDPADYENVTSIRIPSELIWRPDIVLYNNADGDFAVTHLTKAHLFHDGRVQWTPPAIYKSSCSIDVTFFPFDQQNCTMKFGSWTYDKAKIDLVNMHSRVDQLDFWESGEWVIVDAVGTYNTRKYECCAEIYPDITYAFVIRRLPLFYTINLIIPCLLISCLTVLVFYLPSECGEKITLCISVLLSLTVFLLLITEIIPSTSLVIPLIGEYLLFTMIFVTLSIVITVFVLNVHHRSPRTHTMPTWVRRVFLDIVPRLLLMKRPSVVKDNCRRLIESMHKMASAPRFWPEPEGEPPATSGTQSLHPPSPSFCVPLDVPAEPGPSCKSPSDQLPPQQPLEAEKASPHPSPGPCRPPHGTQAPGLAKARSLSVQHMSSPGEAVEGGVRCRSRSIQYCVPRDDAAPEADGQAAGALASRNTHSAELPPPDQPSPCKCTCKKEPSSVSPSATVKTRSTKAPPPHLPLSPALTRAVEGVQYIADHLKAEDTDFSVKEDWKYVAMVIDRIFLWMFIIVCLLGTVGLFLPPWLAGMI

Compound `COc1nccnc1NS(=O)(=O)c1ccc(N)cc1` has an AC50 [1] greater than 30 µM, an AC50 [2] greater than 30 µM and an AC50 [3] greater than 30 µM.
With `CC(=O)/N=c1/sc(S(N)(=O)=O)nn1C` [METHAZOLAMIDE] the AC50 [1] was greater than 30 µM, the AC50 (Progesterone receptor [4]) was greater than 10 µM and the AC50 [5] was greater than 10 µM. It also gave an AC50 [3] greater than 30 µM, an AC50 [6] greater than 10 µM and an AC50 [7] greater than 10 µM. The AC50 [8] was greater than 10 µM, the AC50 (Progesterone receptor [9]) was greater than 30 µM and the AC50 [10] was greater than 10 µM. It also gave an AC50 [11] greater than 10 µM.
Compound `CC(=O)Oc1ccccc1C(=O)Nc1ncc([N+](=O)[O-])s1` [NITAZOXANIDE] has an AC50 [1] greater than 30 µM, an AC50 (Progesterone receptor [4]) greater than 30 µM and an AC50 [5] greater than 30 µM. The AC50 [3] was greater than 30 µM, the AC50 [6] was 1.9 µM and the AC50 [7] was 7.3 µM. For the same compound, the AC50 [8] was 6.6 µM, the AC50 (Progesterone receptor [9]) was greater than 30 µM and the AC50 [10] was 7.5 µM. The AC50 [11] was 8.8 µM.
`CCCCCCCCCCC[C@@H](C[C@@H]1OC(=O)[C@H]1CCCCCC)OC(=O)[C@H](CC(C)C)NC=O` [ORLISTAT] showed an AC50 [1] greater than 30 µM, an AC50 [3] greater than 30 µM and an AC50 (Progesterone receptor [9]) greater than 30 µM.
`O=C1[C@H]2CCCC[C@H]2C(=O)N1CCCCN1CCN(c2nsc3ccccc23)CC1` [PEROSPIRONE] showed an AC50 [1] greater than 30 µM, an AC50 [3] greater than 30 µM and an AC50 (Progesterone receptor [9]) greater than 30 µM.
Compound `CN(C)CCC(c1ccccc1)c1ccccn1` (configuration not stated) [PHENIRAMINE] has an AC50 [1] greater than 30 µM, an AC50 [3] greater than 30 µM and an AC50 (Progesterone receptor [9]) greater than 30 µM.
For `CC(C)[N+](C)(CCOC(=O)C1c2ccccc2Oc2ccccc21)C(C)C` [PROPANTHELINE], the AC50 [1] was greater than 30 µM, the AC50 [3] was greater than 30 µM and the AC50 (Progesterone receptor [9]) was greater than 30 µM.
Compound `CN(C)C(=O)c1nc(CNC(=O)CN)n(-c2ccc(Cl)cc2C(=O)c2ccccc2Cl)n1` [RILMAZAFONE] has an AC50 [1] greater than 30 µM, an AC50 [3] greater than 30 µM and an AC50 (Progesterone receptor [9]) greater than 30 µM.
For `NC(=O)NS(=O)(=O)c1ccc(N)cc1` [SULFACARBAMIDE], the AC50 [1] was greater than 30 µM, the AC50 [3] was greater than 30 µM and the AC50 (Progesterone receptor [9]) was greater than 30 µM.
With `CCCCCCCCNC(C)C(O)c1ccc(SC(C)C)cc1` (configuration not stated) [SULOCTIDIL] the AC50 [1] was greater than 10 µM, the AC50 [3] was greater than 30 µM and the AC50 (Progesterone receptor [9]) was greater than 30 µM.
`CCCCCCCCCCCCCCCC(=O)OC/C=C(C)/C=C/C=C(C)/C=C/C1=C(C)CCCC1(C)C` [VITAMIN A PALMITATE] showed an AC50 [1] greater than 30 µM, an AC50 [3] greater than 30 µM and an AC50 (Progesterone receptor [9]) greater than 30 µM.
